One series deals with RCC4 and RCC4/VHL cells. It counts as cell-based. The protocol: Cell Viability Assays. For 2,3-bis[2-methoxy-4-nitro-5-sulfophenyl]-2H-tetrazolium-5-carboxanilide (XTT) assays, five thousand cells were plated in 96-well plates. The next day, vehicle (DMSO) or drug was added by serial dilution. Four days later, media were aspirated, XTT solution (0.3 mg/ml of XTT (Sigma), […] N-methyl dibenxopyrazine methyl sulfate (Sigma) in phenol red-free media) was added, and the plates were incubated at 37° C. for 1-2 hours. Metabolism of XTT was quantified by measuring the absorbance at 450 nm. IC50s were calculated using linear interpolation. For clonogenic survival assays, three hundred cells were plated per 60 mm tissue culture dish. The cells were allowed to attach overnight and then treated with vehicle or drug for 14 days. Colonies were fixed and stained with crystal violet (0.1% crystal violet in 95% ethanol). All conditions were measured in triplicate and each experiment was done in duplicate or triplicate. To determine necrosis, cells were treated with drug for a given time point. Media and cells were collected, centrifugated, and resuspended in 0.4% trypan blue (Invitrogen). Live and dead cells were counted on a hematocytometer.

Another series concerns RCC4 cells. Nature of the series: Glucose uptake (2-deoxy-D-[3H]glucose), RCC4. It is filed as cell-based. The protocol: Glucose Uptake. One hundred thousand cells were plated per well in a six-well plate. The next day, cells were treated with the indicated concentration of drug and incubated for the indicated time. Cells were then washed twice with phosphate-buffered saline, incubated in low-glucose medium for 30 minutes, and 3H-2-deoxyglucose (0.5 μCi) was added in 1 ml of glucose-free media for an additional hour. Cells were washed twice in PBS and lysed (0.2 N NaOH and 0.2% sodium dodecyl sulfate). Glucose uptake was quantified with a scintillation counter.

The subject of another series is 786-O xenograft tumors. The experiment in a line: FDG-PET imaging of glucose uptake in renal carcinoma xenograft. It is filed as in vivo, mice. Conditions: three daily doses (STF-35 11.6 mg/kg i.p.). The protocol:
In Vivo Studies. All experiments were approved by Stanford's Administrative Panel on Laboratory Animal Care (APLAC) and in accordance with both institutional and national guidelines. Five million cells were implanted subcutaneously into the flanks of nude mice (4-6 weeks old)(Charles River Laboratories). Tumors were measured with calipers. Volume was calculated by the following formula: width^2×0.5 length. Once tumors reached an average size of >20 mm^3, mice were randomized into vehicle (DMSO diluted in 16% cremaphor EL/PBS) or treated groups. Mice were treated with STF-35 (11.6 mg/kg for the first 3 days, followed by 7.8 mg/kg for the 7-9 days). Five-micron sections were cut for immunohistochemistry. Sections were counterstained with hematoxylin and eosin. For 2-[^18F]-fluoro-2-deoxy-glucose-positron emission tomography imaging, mice bearing tumors were fasted overnight. The next day, the mice were anesthetized with 2% isoflurane and injected intraperitoneally with 250 μCi of FDG. Mice were imaged for 10 minutes at one hour post-injection, using a Rodent R4 microPET system (Concorde Microsystems). Data were reconstructed into three-dimensional volumes using an ordered subset expectation maximization algorithm and were calibrated into units of percent injected dose per gram.

The subject of a further series is LC3. Conditions: leading to cell death; cited from earlier work.
Where [1] appears, read: short-term (XTT) and/or long-term (clonogenic) survival assays.

These results are taken from patent US9079859B2, “Synthetic lethal targeting of glucose transport” (AUCKLAND UNISERVICES LIMITED, priority 2011, dated 2015).

Like-named read-outs stand apart in the source and are kept apart here.

As for `O=C(O)C(=O)CBr` [bromopyruvate], the “cytotoxicity to RCC4 and RCC4/VHL cells” value with RCC4 and RCC4/VHL cells (setting [1]) is recorded as “toxic to both”.

Turning to `O=CC[C@@H](O)[C@H](O)[C@H](O)CO` [2-DG, 2-deoxy-D-glucose], the “cytotoxicity to RCC4 and RCC4/VHL cells” value with RCC4 and RCC4/VHL cells is “not cytotoxic”.

On to `Clc1ccccc1C(c1ccccc1)(c1ccccc1)n1ccnc1` [clotrimazole], for which the “cytotoxicity to RCC4 and RCC4/VHL cells” value with RCC4 and RCC4/VHL cells is “toxic to both”.

`Cc1cccc(Nc2nc(-c3ccncc3)cs2)c1` [STF-62247]: the “glucose uptake in VHL-defective cells, analogs and control cytotoxins” value with RCC4 cells was “did not decrease”. Also, in the series with 786-O xenograft tumors, the “glucose (FDG) uptake within the tumors by FDG-PET” value is “did not have a decrease”. For the same compound, in the series with LC3, the “autophagy in VHL-deficient RCCs” value is “induce autophagy”.

`O=C(O)c1nn(Cc2ccc(Cl)cc2Cl)c2ccccc12` [lonidamine]: the “cytotoxicity to RCC4 and RCC4/VHL cells” value in the series on RCC4 and RCC4/VHL cells is given as “toxic to both”.

As for `O=C(CCc1ccc(O)cc1)c1c(O)cc(O)cc1O` [phloretin], in the series with RCC4 and RCC4/VHL cells, the “cytotoxicity to RCC4 and RCC4/VHL cells” value is reported as “toxic to both”.

As to `CC(=O)CC(=O)Nc1ccc(Cl)c(C(F)(F)F)c1` [fasentin], the “cytotoxicity to RCC4 and RCC4/VHL cells” value in the series on RCC4 and RCC4/VHL cells (setting [1]) is on record as “relatively non-toxic”.
